We go through 52 compounds from paper PMC10380188, “A Random Forest Model for Peptide Classification Based on Virtual Docking Data” (International Journal of Molecular Sciences, 2023).

No end group written: not given here.

Sequence of porcine epidemic diarrhea virus spike (PEDV S) protein (Q91AV1 26-1383): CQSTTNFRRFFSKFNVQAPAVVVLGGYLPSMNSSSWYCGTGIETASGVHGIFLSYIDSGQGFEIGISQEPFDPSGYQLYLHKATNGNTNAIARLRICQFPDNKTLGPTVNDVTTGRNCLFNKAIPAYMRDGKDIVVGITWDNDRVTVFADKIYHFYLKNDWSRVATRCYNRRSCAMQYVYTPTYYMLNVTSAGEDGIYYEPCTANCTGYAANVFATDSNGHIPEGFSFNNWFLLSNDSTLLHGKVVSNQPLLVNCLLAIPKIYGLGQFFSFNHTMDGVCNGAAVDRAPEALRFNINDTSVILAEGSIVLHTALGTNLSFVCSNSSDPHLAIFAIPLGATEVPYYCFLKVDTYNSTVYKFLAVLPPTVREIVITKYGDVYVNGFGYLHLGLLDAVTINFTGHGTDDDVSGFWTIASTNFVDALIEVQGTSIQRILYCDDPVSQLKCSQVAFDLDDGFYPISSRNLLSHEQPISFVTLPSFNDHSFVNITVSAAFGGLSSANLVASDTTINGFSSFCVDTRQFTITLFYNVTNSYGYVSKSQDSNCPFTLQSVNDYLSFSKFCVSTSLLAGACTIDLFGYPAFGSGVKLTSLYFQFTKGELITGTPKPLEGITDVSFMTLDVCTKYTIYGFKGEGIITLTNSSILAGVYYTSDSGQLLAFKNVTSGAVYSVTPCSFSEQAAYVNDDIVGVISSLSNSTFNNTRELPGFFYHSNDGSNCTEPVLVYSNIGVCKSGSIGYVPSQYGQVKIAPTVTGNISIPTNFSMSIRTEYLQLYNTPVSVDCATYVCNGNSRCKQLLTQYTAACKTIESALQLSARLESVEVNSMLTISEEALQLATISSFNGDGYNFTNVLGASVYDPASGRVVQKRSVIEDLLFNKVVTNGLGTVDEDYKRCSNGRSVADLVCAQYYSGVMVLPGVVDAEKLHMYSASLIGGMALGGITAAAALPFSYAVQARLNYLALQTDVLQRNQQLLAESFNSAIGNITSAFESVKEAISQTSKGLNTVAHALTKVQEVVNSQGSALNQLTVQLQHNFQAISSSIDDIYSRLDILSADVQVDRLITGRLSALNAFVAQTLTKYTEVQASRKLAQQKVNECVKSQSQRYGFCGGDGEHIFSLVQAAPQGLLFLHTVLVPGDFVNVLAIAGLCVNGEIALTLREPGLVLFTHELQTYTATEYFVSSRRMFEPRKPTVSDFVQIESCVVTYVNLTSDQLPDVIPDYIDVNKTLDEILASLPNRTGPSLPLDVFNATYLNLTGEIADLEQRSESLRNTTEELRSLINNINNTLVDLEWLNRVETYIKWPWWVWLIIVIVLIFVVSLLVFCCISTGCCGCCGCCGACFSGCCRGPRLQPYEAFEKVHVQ

In one test the target is T1, amyloid β-protein 42 (Aβ-42) (Homo sapiens, UniProt P05067).
T1 construct: amyloid β-protein 42 (Aβ-42, n = 79)
T1 sequence (P05067 672-713 limits assumed): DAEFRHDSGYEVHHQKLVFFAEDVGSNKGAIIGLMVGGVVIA
Description: SPR affinity assay (Biacore X100), KD of peptides to Aβ-42. The test is classed as binding. The following applies: Biacore X100, protein coupled to CM5 chip, HBS-EP buffer, six peptide concentrations, same value repeated on each docking-run line. As for the experimental part:
(§1) Equilibrium dissociation constants (KD) between all 194 (115 + 79) peptides and their receptor proteins were determined by SPR using the Biacore X100 instrument. Proteins were coupled to the CM5 chip by the EDC/NHS(1-Ethyl-3-(3′-dimethylaminopropyl) carbodiimide/n-Hydroxysuccinimide) method (GE HealthCare, Chicago, IL, USA), followed by running HBS-EP (HEPES Buffered Saline–EDTA–Surfactant P20) buffer (GE HealthCare, USA) that flowed through the entire pipeline. The peptide was diluted in six different concentrations with HBS-EP buffer and flowed into the machine from low to high, and its resonance signal change was detected separately. In each cycle, the peptide solution flowed through the chip at a constant flow rate of 30 μL/min for 120 s, and the peptide reacted fully with the protein, followed by HBS-EP buffer flowing through the chip at the same rate for 120 s, and the peptide was partially dissociated from the protein. Finally, the peptides bound to the proteins were completely eluted off with 0.25% SDS solution for the next cycle until all peptides were detected. The KD between each peptide and protein was calculated and analyzed using Biacore X100 Evaluation Software (Version 2.1) to determine its affinity.
(In SPR one partner is held on a chip, and binding of the other changes the refractive index at the surface.)
As usually defined, the Kd is the equilibrium constant for the complex coming apart. YVRHGH [DPL_1069]: the Kd is 37.1 µM.

Another test has as its target porcine epidemic diarrhea virus spike (PEDV S) protein (Porcine epidemic diarrhea virus, UniProt Q91AV1). Description: SPR affinity assay, KD of six-amino-acid peptides to PEDV S protein. The test is classed as binding. The following applies: Receptor PEDV S; PEDV peptide dataset used for model performance validation; value repeated on each docking-pose line. How it is done:
as §1
Following the methods described above, a totally new dataset was constructed to further verify the performance of the constructed model. […] Meanwhile, the PEDV peptides were synthesized and tested by SPR successively, and the obtained KD values were further used to define the class of each peptide based on the criteria described above. Finally, the new 6-amino-acid peptide dataset for PEDV S combining all scores of the important features and class information was built to further test the predictive correctness of the RF model (Supplementary Table S2).
FWKEAK [DPL_1032] had a Kd of 7.72 µM. Still for that read-out and setting: with FWKAKQ [DPL_1033] the figure was 45.5 µM; with WHFWWQ [DPL_1044], 88.5 µM; with FWKISH [DPL_1030], 28 µM. Compound WHFNRP [DPL_1046] had a Kd of 65.2 µM. Still for that read-out and setting: the figure for `N=C(N)NCCC[C@H](NC(=O)[C@H](CCCCN)NC(=O)[C@H](CO)NC(=O)[C@H](CCCCN)NC(=O)[C@H](Cc1c[nH]c2ccccc12)NC(=O)[C@@H](N)Cc1ccccc1)C(=O)O` [DPL_1031] is 2.16 µM.

In turn, WHFSKC [DPL_1036] gave a Kd of 3.22 µM. For the compound WHFQNQ [DPL_1037], the Kd stood at 3.23 µM. The compound WHFHWP [DPL_1045] came in with a Kd of 176 µM. With WHFCQH [DPL_1038], the Kd is 0.16 µM.

Take WHFKYR [DPL_1041]: the Kd came to 0.0015 µM. For the compound WHFMIY [DPL_1040], the Kd was determined as 179 µM.

For the compound WHFEYF [DPL_1043], the Kd is 43.7 µM. On to FWKQNKCR [DPL_1034], for which the Kd amounted to 24.2 µM. With FWKQNKFL [DPL_1035], binding was put at a Kd of 15 µM.

Compound WHFFKT [DPL_1039] displayed a Kd of 25.7 µM. WHFWIV [DPL_1042] displayed a Kd of 15.2 µM.

Still in this test, the particulars now being: Receptor PEDV S; SPR; value repeated on each docking-pose line of the peptide.
With RKQHIS [DPL_1056], the Kd turned out to be 384 µM. Same read-out and setting: the figure for KHQWKY [DPL_1062] is 326 µM; for RKQHLL [DPL_1055] it is 1 µM. On the same count and under the same terms, with RKQYWQ [DPL_1058] the figure was 728 µM; with KHQAHH [DPL_1060], 0.0431 µM.

Consider RKQHCK [DPL_1057], for which the Kd amounted to 1.53 µM.

Staying with this test, now noted: SPR, peptide to PEDV S protein; value repeated on each docking-pose line of the peptide.
In turn, FWKYNT [DPL_1023] gave a Kd of 32.5 µM. With FWKYAW [DPL_1028], the Kd was found to be 56.8 µM. Turning to FWKWWW [DPL_1026], the affinity, expressed as Kd, was 17.7 µM.

The compound FWKHEK [DPL_1025] registered a Kd of 132 µM. Same read-out and setting: with FWKCDV [DPL_1022] the figure was 116 µM; with FWKHRI [DPL_1029], 36 µM; with FWKLWS [DPL_1024], 0.987 µM. Still for that read-out and setting: with FWKFNE [DPL_1027] the figure was 56.6 µM.

Still in this test, the particulars now being: SPR, receptor PEDV S; value repeated on each of the 20 docking-pose lines per peptide.
As for FWKQNK [DPL_1013], the dissociation constant Kd stood at 1190 µM. FWKPKR [DPL_1021] displayed a Kd of 39.5 µM. FWKPDQ [DPL_1019] gave a Kd of 16.7 µM. Still for that read-out and setting: with FWKHDI [DPL_1017] the figure was 56.2 µM; with FWKFWK [DPL_1018], 25.4 µM; with FWKSWH [DPL_1016], 34.9 µM.

The compound FWKWHW [DPL_1014] had a Kd of 0.136 µM. As to FWKYHE [DPL_1015], binding was put at a Kd of 43.4 µM. On the same count and under the same terms, with FWKKED [DPL_1020] the figure was 7.04 µM.

The same test, now with this note: receptor PEDV S; PEDV peptide dataset for model performance validation; value repeated on each of the peptide's 20 lines.
On to KHQVHR [DPL_1064], for which the Kd was 9.82 µM. On the same count and under the same terms, with KHQHFG [DPL_1063] the figure was 9.99 µM; with KHQKRC [DPL_1067], 0.139 µM.

Still in this test, the particulars now being: receptor PEDV S; PEDV peptide dataset used for model performance validation; same value repeated on each line of a peptide.
For WHFMIK [DPL_1048], the Kd amounted to 0.13 µM. The same measure, in the same setting: with RKQWPQ [DPL_1050] the figure was 0.556 µM; with RKQFDK [DPL_1051], 0.00736 µM. Compound RKQKDW [DPL_1049] returned a Kd of 0.35 µM. Still for that read-out and setting: the figure for RKQSHK [DPL_1052] is 44.5 µM; for RKQICW [DPL_1053] it is 21.8 µM; for WHFGSK [DPL_1047] it is 69.8 µM.

As for RKQGVK [DPL_1054], the Kd was 192 µM.
